Laboratory results: patent publication US20250066316A1, “CRYSTALLINE FORMS OF A COMPOUND FOR TREATING OR PREVENTING GOUT OR HYPERURICEMIA” (Arthrosi Therapeutics, Inc., priority 2021, published 2025)

Columns and labels:
[1] = Solubility of test articles in HBSS assay buffer; conditions: all tested concentrations; highest tested concentration 10 μM
Description: Before the experiment, the medium was removed and the cells were washed twice with 100 μL of HBSS without Cl^−. Uptake experiments were carried out at 37±1° C. in 50 μL of HBSS without Cl^−, pH 7.4 containing the probe substrate (20 μM uric acid) and the test article (TA) or solvent.

[2] = target: T1, human URAT1 uptake transporter (Homo sapiens, UniProt Q96S37); assay: In vitro interaction with the human URAT1 uptake transporter (uric acid uptake in MDCKII cells); format: cell-based; conditions: for inhibition at 10 µM: MDCK-II, read-out: inhibition of URAT1 mediated uric acid accumulation
T1 construct: expressed in transfected cells
T1 sequence (Q96S37 1-553): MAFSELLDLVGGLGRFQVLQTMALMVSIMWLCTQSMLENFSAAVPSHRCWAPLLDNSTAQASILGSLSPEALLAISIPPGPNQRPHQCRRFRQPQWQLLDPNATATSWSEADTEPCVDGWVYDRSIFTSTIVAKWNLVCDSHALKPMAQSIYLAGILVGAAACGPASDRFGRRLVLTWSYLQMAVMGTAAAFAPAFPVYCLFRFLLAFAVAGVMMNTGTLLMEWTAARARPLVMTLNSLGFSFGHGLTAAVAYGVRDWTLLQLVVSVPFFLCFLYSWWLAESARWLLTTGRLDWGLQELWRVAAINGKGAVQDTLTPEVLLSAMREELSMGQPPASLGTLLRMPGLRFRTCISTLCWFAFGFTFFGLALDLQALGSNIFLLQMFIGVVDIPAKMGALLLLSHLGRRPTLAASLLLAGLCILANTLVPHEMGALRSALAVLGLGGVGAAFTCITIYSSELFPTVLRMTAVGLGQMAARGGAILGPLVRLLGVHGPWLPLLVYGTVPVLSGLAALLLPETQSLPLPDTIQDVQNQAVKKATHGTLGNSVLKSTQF
Description: Uptake experiments were performed using MDCKII cells stably expressing the human URAT1 uptake transporter. Cells were cultured at 37±1° C. in an atmosphere of 95:5 air:CO2 and were plated onto standard 96-well tissue culture plates at the cell number described in Table 1.
Radiolabelled probe substrate transport was determined by measuring an aliquot (35 μL) from each well for liquid scintillation counting.

[3] = cited from earlier work
[4] = Stability in human microsomes; format: in vitro ADME; conditions: comparison with benzbromarone
[5] = target: CYP2C9 (Homo sapiens, UniProt P11712); assay: CYP2C9 metabolic pathway / metabolite formation; format: in vitro ADME
Chain of CYP2C9 (P11712 whole entry): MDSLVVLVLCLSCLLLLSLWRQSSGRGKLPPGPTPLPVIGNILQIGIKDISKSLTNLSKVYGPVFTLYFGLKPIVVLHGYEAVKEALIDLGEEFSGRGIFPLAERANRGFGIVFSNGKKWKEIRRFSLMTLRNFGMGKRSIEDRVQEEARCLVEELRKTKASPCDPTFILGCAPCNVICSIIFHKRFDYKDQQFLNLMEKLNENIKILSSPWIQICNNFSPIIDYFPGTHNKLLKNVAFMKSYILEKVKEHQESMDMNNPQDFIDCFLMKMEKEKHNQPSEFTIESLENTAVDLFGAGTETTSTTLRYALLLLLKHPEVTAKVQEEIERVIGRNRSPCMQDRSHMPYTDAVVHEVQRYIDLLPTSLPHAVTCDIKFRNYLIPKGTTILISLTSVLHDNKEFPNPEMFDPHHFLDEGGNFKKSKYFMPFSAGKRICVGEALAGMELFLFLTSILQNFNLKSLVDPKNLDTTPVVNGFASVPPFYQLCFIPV

SMILES	solubility in HBSS buffer [1]	inhibition at 10 µM [2] [%]	serum uric acid (sUA) level reached ([3]; chronic therapy, target levels) [mg/dL]	hepatotoxicity ([3]; in certain patients)	in vitro URAT1 potency compared to benzbromarone ([2]; comparison with benzbromarone)	stability in human microsomes [4]	CYP2C9 metabolic pathway of the compound [5]	formation of 6-OH benzbromarone and 5,6-di-OH benzbromarone metabolites [5]
CCc1oc2ccccc2c1C(=O)c1cc(Br)c(O)c(Br)c1 [Benzbromarone, reference compound]	soluble	98	< 6	associated with hepatotoxicity	–	–	–	–
[2H]c1c([2H])c([2H])c2c(C(=O)c3cc(Br)c(O)c(Br)c3)c(C(C)O)oc2c1[2H] (stereo not shown) [Compound 1, (3,5-dibromo-4-hydroxyphenyl) (2-(1-hydroxyethyl)benzofuran-3-yl-4,5,6,7-d4) methanone]	soluble	100	–	–	better	more stable than benzbromarone	significantly reduced	not formed
